Paper PMC6792352, “Limited Chemical Structural Diversity Found to Modulate Thyroid Hormone Receptor in the Tox21 Chemical Library” (Environmental Health Perspectives, 2019)
Where a name gives a salt, the structure may show the parent alone. Residues, ends and D or L forms follow the SMILES beside them.

Experiment: in vitro
Conditions: rat, gh3-tre-luc cells, AC50 (uM) modified / 1000

SMILES	CC50 at 24 h
CCC(C)(C)c1cc(O)c(C(C)(C)CC)cc1O [2,5-Bis(2-methylbutan-2-yl)benzene-1,4-diol]	53.8 µM
Oc1cc(O)cc(O)c1 [1,3,5-Trihydroxybenzene dihydrate]	> 50 µM
COc1cc(NCCCC(C)N)c2ncccc2c1 (stereo not shown) [Quinocide]	15.1 µM
Cc1cccc([N+](=O)[O-])c1C [1,2-Dimethyl-3-nitrobenzene]	> 90 µM
Cc1oc(-c2ccccc2)nc1CCOc1ccc(C[C@H](Nc2ccccc2C(=O)c2ccccc2)C(=O)O)cc1 [Farglitazar]	25 µM
Cc1cccc2sc3nncn3c12 [2,7,8,9-Tricyclazole]	> 90 µM
CC(=O)OCC(=O)[C@@]1(O)CC[C@H]2[C@@H]3CCC4=CC(=O)CC[C@]4(C)[C@H]3[C@@H](O)C[C@@]21C [Hydrocortisone acetate]	> 50 µM
CN(C)CCOCCN(C)CCO [2-[{2-[2-(Dimethylamino)ethoxy]ethyl}(methyl)amino]ethanol]	> 90 µM
CCCCCCCCCCCCN(CCO)CCO [Lauryldiethanolamine]	14.8 µM
c1ccc2ccccc2c1 [Naphthalene]	> 90 µM
COc1ccc(N)c([N+](=O)[O-])c1 [4-Methoxy-2-nitroaniline]	> 90 µM
CC(NNC(=O)c1ccccc1)c1ccccc1 (stereo not shown) [Benmoxin]	> 50 µM
NC(N)=NN=C(/C=C/c1ccc([N+](=O)[O-])o1)/C=C/c1ccc([N+](=O)[O-])o1 [Nitrovin]	1.82 µM
CCNC(=O)[C@@H](C)OC(=O)Nc1ccccc1 [Carbetamide]	> 90 µM
O=c1ccc2ccccc2o1 [Coumarin]	> 90 µM
CC(C)CC(C)N(c1ccccc1)c1ccc(N)cc1 (stereo not shown) [N-(4-Methylpentan-2-yl)-N-phenylbenzene-1,4-diamine]	28.5 µM
Clc1cc(Cl)c(Cl)c(Cl)c1Cl [Pentachlorobenzene]	> 90 µM
CC1=C(C)C(=O)C(CCCCC#CCCCC#CCO)=C(C)C1=O [Docebenone]	23.5 µM
CCCCCCCCCCC [Undecane]	> 90 µM
C[C@@H](O)[C@H]1C(=O)N2C(C(=O)O)=C([C@H]3CCCO3)S[C@H]12 [Fropenem]	> 50 µM
CCCCCCCCCCCCCCCCCCOCCO [Polyethylene glycol stearyl ether]	> 20 µM
C=C(C)C(=O)OCCOCC [2-Ethoxyethyl methacrylate]	> 90 µM
OCCCCC(O)CO (stereo not shown) [1,2,6-Hexanetriol]	> 90 µM
CCNC1(c2cccs2)CCCCC1=O (stereo not shown) [Tiletamine hydrochloride]	> 20 µM
CCCCCCCC/C=C\CCCCCCCC(=O)OCC [Ethyl oleate]	> 90 µM
CC(=O)OCC(CCn1cnc2cnc(N)nc21)COC(C)=O [Famciclovir]	> 50 µM

SMILES	CC50 at 24 h
CCCCOC(=O)CO [Butyl hydroxyacetate]	> 90 µM
O=[N+]([O-])c1cc(C(F)(F)F)ccc1Cl [1-Chloro-2-nitro-4-(trifluoromethyl)benzene]	> 90 µM
COc1cc2c(Nc3ccc(Br)cc3F)ncnc2cc1OCC1CCN(C)CC1 [Vandetanib]	3.74 µM
C=CCOCC(O)CS(=O)(=O)O (stereo not shown) [Sodium 3-(allyloxy)-2-hydroxypropanesulphonate]	> 90 µM
CN1CCc2cc3c(cc2C1O)OCO3 (stereo not shown) [Hydrastinine hydrochloride]	> 90 µM
Cc1nc2ccccc2s1 [2-Methylbenzothiazole]	> 90 µM
CCCCCCCCBr [1-Bromooctane]	> 90 µM
COc1ccccc1NC(=O)CC(C)=O [N-(2-Methoxyphenyl)-3-oxobutanamide]	> 90 µM
CC(C)(C)c1ccc(C(=O)O)cc1 [4-tert-Butylbenzoic acid]	> 90 µM
C=COCC1CCC(CO)CC1 (stereo not shown) [{4-[(Ethenyloxy)methyl]cyclohexyl}methanol]	> 90 µM
O=C(O)c1cccc(O)c1 [3-Hydroxybenzoic acid]	> 90 µM
Clc1ccc2c(c1)C(c1ccccc1)=NCc1nncn1-2 [Estazolam]	> 50 µM
Cc1ccc(C)c(O)c1 [2,5-Dimethylphenol]	> 90 µM
C1CCCNCC1 [Hexamethyleneimine]	> 100 µM
OCc1ccco1 [Furfuryl alcohol]	> 90 µM
CN(C)CC/C=C1/c2ccccc2COc2ccc(CC(=O)O)cc21 [Olopatadine hydrochloride]	> 50 µM
Oc1ccc(C(=C(Cl)Cl)c2ccc(O)cc2)cc1 [Bis(4-hydroxyphenyl)-2,2-dichloroethylene]	> 90 µM
CCN(Cc1ccccc1)c1ccccc1 [N-Ethyl-N-phenyl benzylamine]	> 90 µM
CCc1nccnc1CC [2,3-Diethylpyrazine]	> 30 µM
C=C(C)C(=O)OC [Methyl methacrylate]	> 90 µM
CCC1C(C)=NN=C(c2ccc(OC)c(OC)c2)c2cc(OC)c(OC)cc21 (stereo not shown) [Tofisopam]	> 50 µM
Clc1ccc(Sc2cc(Cl)c(Cl)cc2Cl)cc1 [Tetrasul]	> 90 µM
CCn1cc[n+](C)c1C [1-Ethyl-2,3-dimethylimidazolium bromide]	> 90 µM
Cc1ccc(C(=O)c2ccc(CC(=O)O)n2C)cc1 [Tolmetin sodium dihydrate]	> 20 µM
NC/C=C/C(=O)O [(E)-4-amino-2-butenoic acid]	> 50 µM
O=C1CCCCO1 [Tetrahydro-2H-pyran-2-one]	> 90 µM

SMILES	CC50 at 24 h
CCN1CN(CC)CN(CC)C1 [1,3,5-Triethylhexahydro-s-triazine]	> 90 µM
COC(=O)[C@H](Cc1ccccc1)NC(=O)[C@@H](N)CC(=O)O [Aspartame] (H-Asp-Phe-OMe)	> 90 µM
O=C(c1ccc(F)cc1)C1CCN(CCn2c(=O)[nH]c3ccccc3c2=O)CC1 [Ketanserin]	> 50 µM
CCOc1cc(N)c(Cl)cc1C(=O)NCC1CN(Cc2ccc(F)cc2)CCO1 (stereo not shown) [Mosapride citrate]	> 50 µM
C(=C(c1ccccc1)c1ccccc1)c1ccccc1 [Triphenylethylene]	> 90 µM
C#C[C@]1(O)CC[C@H]2[C@@H]3CCC4=C(CCC(=O)C4)[C@H]3CC[C@@]21C [Norethynodrel]	> 20 µM
Cc1ccc(C)c(OCCCC(C)(C)C(=O)O)c1 [Gemfibrozil]	> 90 µM
C=Cc1ccccc1 [Styrene]	> 90 µM
CCCCc1ccc2ccccc2c1S(=O)(=O)O [Butylnaphthalenesulfonic acid sodium salt]	> 90 µM
CCO[C@@H](Cc1ccc(OCCc2ccc(OS(C)(=O)=O)cc2)cc1)C(=O)O [Tesaglitazar]	> 50 µM
CCCCCCn1cc[n+](C)c1 [1-Hexyl-3-methylimidazolium trifluoromethanesulfonate]	> 90 µM
CNC(=O)c1ccccc1Sc1ccc2c(/C=C/c3ccccn3)n[nH]c2c1 [Axitinib]	> 50 µM
CC(CCl)OP(=O)(OC(C)CCl)OC(C)CCl (stereo not shown) [Tris(2-chloroisopropyl)phosphate]	> 90 µM
CN[C@H]1CC[C@@H](c2ccc(Cl)c(Cl)c2)c2ccc(S(N)(=O)=O)cc21 [UK-373911]	4.55 µM
CC(Cc1ccc(C(C)(C)C)cc1)CN1C[C@@H](C)O[C@@H](C)C1 (stereo partly drawn) [(2R,6S)-Fenpropimorph]	> 90 µM
COC(=O)/C=C/C(C)=C\C=C\C(C)=C\C=C\C=C(C)\C=C\C=C(C)\C=C\C(=O)O [Bixin]	> 90 µM
CCOc1cc([N+](=O)[O-])c(OCC)cc1N1CCOCC1 [4-(2,5-Diethoxy-4-nitrophenyl)morpholine]	> 90 µM
C=C(C)C(=O)OCC1CO1 (stereo not shown) [Glycidyl methacrylate]	> 90 µM
O=C(c1cc2ccccc2o1)N1CCN(Cc2ccccc2)CC1 [Befuraline]	> 50 µM
CCCCOCCOCCOCCCC [Diethylene glycol dibutyl ether]	> 90 µM
Cc1cc(C)c(/C=C2\C(=O)Nc3ccccc32)[nH]1 [SU-5416]	> 50 µM
NCC1(CC(=O)O)CCCCC1 [Gabapentin]	> 20 µM
C=CC(C)(CCC=C(C)C)OC(=O)CC (stereo not shown) [3,7-Dimethylocta-1,6-dien-3-yl propanoate]	> 90 µM
CC(=O)CCc1ccccc1 [Benzylacetone]	> 90 µM

Same assay, conditions: rat, gh3-tre-luc cells, AC50 (uM) modified / 1000, Tox21_110001=Tox21_110079; viability, 1 nM T3 present, 24 h

SMILES	CC50 at 24 h
COC(=O)C1=CCCN(C)C1 [Arecoline]	> 50 µM

Same assay, conditions: rat, gh3-tre-luc cells, AC50 (uM) modified / 1000, Tox21_110001=Tox21_110485; viability, 1 nM T3 present, 24 h

SMILES	CC50 at 24 h
CC(=O)O[C@H]1CC[C@@]2(C)C(=CC[C@@H]3[C@@H]2CC[C@]2(C)C(=O)CC[C@@H]32)C1 [Dehydroepiandrosterone acetate]	> 20 µM

Same assay, conditions: rat, gh3-tre-luc cells, AC50 (uM) modified / 1000, Tox21_110001=Tox21_111044; viability, 1 nM T3 present, 24 h

SMILES	CC50 at 24 h
C1CCC(NC2CCCCC2)CC1 [Dicyclohexylamine]	> 50 µM

Same assay, conditions: rat, gh3-tre-luc cells, AC50 (uM) modified / 1000, Tox21_110001=Tox21_111576; viability, 1 nM T3 present, 24 h

SMILES	CC50 at 24 h
C[C@]12C=CC(=O)C=C1CC[C@@H]1[C@@H]2CC[C@]2(C)OC(=O)CC[C@@H]12 [Testolactone]	> 50 µM

Same assay, conditions: rat, gh3-tre-luc cells, AC50 (uM) modified / 1000, Tox21_110001=Tox21_111889; viability, 1 nM T3 present, 24 h

SMILES	CC50 at 24 h
Cc1c(Cl)c(=O)oc2cc(OP(=O)(OCCCl)OCCCl)ccc12 [Haloxon]	> 50 µM

Same assay, conditions: rat, gh3-tre-luc cells, AC50 (uM) modified / 1000, Tox21_110001=Tox21_113494; viability, 1 nM T3 present, 24 h

SMILES	CC50 at 24 h
COc1cc(CC(C)N)c(OC)cc1Br (stereo not shown) [Brolamfetamine hydrobromide]	25.6 µM

Same assay, conditions: rat, gh3-tre-luc cells, AC50 (uM) modified / 1000, Tox21_110001=Tox21_200963; viability, 1 nM T3 present, 24 h

SMILES	CC50 at 24 h
CC(=O)O[C@H]1CC[C@@]2(C)C(=CC[C@@H]3[C@@H]2CC[C@]2(C)C(=O)CC[C@@H]32)C1 [Dehydroepiandrosterone acetate]	> 90 µM

Same assay, conditions: rat, gh3-tre-luc cells, AC50 (uM) modified / 1000, Tox21_110001=Tox21_201771; viability, 1 nM T3 present, 24 h

SMILES	CC50 at 24 h
C1CCC(NC2CCCCC2)CC1 [Dicyclohexylamine]	> 90 µM

Same assay, conditions: rat, gh3-tre-luc cells, AC50 (uM) modified / 1000, Tox21_110001=Tox21_300621; viability, 1 nM T3 present, 24 h

SMILES	CC50 at 24 h
ClC1=C(Cl)[C@]2(Cl)[C@@H]3[C@@H](Cl)[C@H]4O[C@H]4[C@@H]3[C@@]1(Cl)C2(Cl)Cl [Heptachlor epoxide]	48.8 µM
